Laboratory results reported in article PMC12584615, “Degradation of 2,4-D by plant growth-promoting Cupriavidus sp. DSPFs: role in mitigating herbicide toxicity in soil and enhancing crop production” (Microbiology Spectrum, 2025).
Blank lines part the entries; values can stand above or below the molecule they belong to.

Legend:
[1] = system: T1, 2,4-dichlorophenol-6-monooxygenase (24DCPM); test: spectrophotometric NAD(P)H consumption at […] nm, Michaelis-Menten fit; format: biochemical, Cupriavidus sp. DSPFs; conditions: 50 µM 2,4-dichlorophenol; phosphate buffer 50 mM pH 7.5; 6.25 µM FAD; read-out: Km (μM) / I^a
T1 construct: gene tfdB; homotetramer ~255 kDa, subunit ~65 kDa

[2] = system: T1, 2,4-dichlorophenol-6-monooxygenase (24DCPM); test: spectrophotometric NAD(P)H consumption at […] nm, uncompetitive substrate inhibition fit; format: biochemical, Cupriavidus sp. DSPFs; conditions: 200 µM NADH; phosphate buffer 50 mM pH 7.5; 6.25 µM FAD; read-out: Km (μM) / I^a
[3] = target: T1, 2,4-dichlorophenol-6-monooxygenase (24DCPM); test: as above; format: biochemical, Cupriavidus sp. DSPFs; conditions: substrate inhibition constant; 200 µM NADH; phosphate buffer 50 mM pH 7.5; 6.25 µM FAD
[4] = target: 2,4-dichlorophenol-6-monooxygenase from Cupriavidus sp. strain DSPFs (Cupriavidus sp. strain DSPFs); test: SEC; ENrich SEC 650 column (24 mL) in 50 mM potassium phosphate buffer pH 7.5, 4°C; calibrated with mass markers from 12.4 to 669 kDa; native mass from log(mol mass) versus Ve/V0, compared with the subunit mass from SDS-PAGE

Molecule: NC(=O)C1=CN([C@@H]2O[C@H](COP(=O)(O)OP(=O)(O)OC[C@H]3O[C@@H](n4cnc5c(N)ncnc54)[C@H](OP(=O)(O)O)[C@@H]3O)[C@@H](O)[C@H]2O)C=CC1 [NADPH]
Km [1]: 46.8 ± 6 µM

Molecule: Oc1ccc(Cl)cc1Cl [2,4-DCP, 2,4-dichlorophenol]
Km [2]: 3.1 ± 0.8 µM | Ki (μM) / I [3]: 374 ± 80 µM

stoichiometry N [4]: 4
Molecule: 2,4-dichlorophenol-6-monooxygenase from Cupriavidus sp. strain DSPFs (enzyme)

Molecule: NC(=O)C1=CN([C@@H]2O[C@H](COP(=O)(O)OP(=O)(O)OC[C@H]3O[C@@H](n4cnc5c(N)ncnc54)[C@H](O)[C@@H]3O)[C@@H](O)[C@H]2O)C=CC1 [NADH]
Km [1]: 205 ± 47 µM
